The subject of this experiment is platelets (surface glycoprotein IIb-IIIa). Kind of experiment: Inhibition of fibrinogen*FITC binding to ADP-activated platelets in whole blood spiked with ReoPro (microtitration well capture). It is filed as cell-based. The following applies: whole blood (CTI 32 μg/ml) pretreated with ReoPro 3 μg/ml; ADP 0, 0.4, 0.8 μM; FIG. 3. An excerpt: The concentration of ReoPro used is that known to inhibit the aggregation of platelets as determined with the use of aggregometry.

Turning to “ReoPro: antiplatelet drug that inhibits binding of fibrinogen to the activated conformer of surface glycoprotein IIb-IIIa”, the “binding of fibrinogen*FITC to platelets (ratio of fibrinogen*FITC signal to CD42*PerCP signal)” value was “inhibits”.

For the origin of these results see patent US6391568B1, “Method for determining platelet reactivity in a whole blood sample” (Lionheart Technologies, Inc., priority 1998, dated 2002).
